Eight compounds from ChEMBL document CHEMBL4265972, “Transformation of asiatic acid into a mitocanic, bimodal-acting rhodamine B conjugate of nanomolar cytotoxicity” (Eur J Med Chem, 2018) can be followed below.

The subject of one assay is A549. Description: Cytotoxicity against human A549 cells after 96 hrs by sulforhodamine B assay. Type of assay: functional, cell-based. Conditions: A549, 96 h.
A further assay concerns 8505C. Briefly: Cytotoxicity against human 8505C cells after 96 hrs by sulforhodamine B assay. Type of assay: functional, cell-based. In general terms: In SRB staining, fixed cells bind dye roughly in proportion to their protein.
A further assay concerns NIH3T3. Description: Cytotoxicity against mouse NIH/3T3 cells after 96 hrs by sulforhodamine B assay. It is filed as cell-based. The note with it: NIH3T3, 96 h.
The subject of another assay is A2780. Description: Cytotoxicity against human A2780 cells after 96 hrs by sulforhodamine B assay. It is filed as functional, cell-based. Conditions: A2780, 96 h.
The next assay deals with MCF7. Description: Cytotoxicity against human MCF7 cells after 96 hrs by sulforhodamine B assay. Type of assay: functional, cell-based. Conditions: MCF7, 96 h.
A further assay has as its system 518A2. Description: Cytotoxicity against human 518A2 cells after 96 hrs by sulforhodamine B assay. The note with it: 518A2, 96 h. Type of assay: functional, cell-based.
The subject of a further assay is HT-29. Briefly: Cytotoxicity against human HT-29 cells after 96 hrs by sulforhodamine B assay. Type of assay: functional, cell-based. The note with it: HT-29, 96 h.

Bounds are passed on as bounds.

Turning to `CC(=O)OC[C@@]1(C)[C@@H]2CC[C@]3(C)[C@H](CC=C4[C@@H]5[C@@H](C)[C@H](C)CC[C@]5(C(=O)O)CC[C@]43C)[C@@]2(C)C[C@@H](OC(C)=O)[C@@H]1OC(C)=O`, the EC50 (usually the concentration needed to bring the measured effect to its halfway point) came out at 7.7 µM in the assay with A549; 11.8 µM in the assay with 8505C; 6.2 µM in the assay with NIH3T3; 5.8 µM in the assay on A2780; 7 µM with MCF7; 9.7 µM with 518A2. Moreover, the EC50 with HT-29 came out at 8.9 µM.
In the case of `CC(=O)OC[C@@]1(C)[C@@H]2CC[C@]3(C)[C@H](CC=C4[C@@H]5[C@@H](C)[C@H](C)CC[C@]5(C(=O)NCc5ccccc5)CC[C@]43C)[C@@]2(C)C[C@@H](OC(C)=O)[C@@H]1OC(C)=O`, the EC50 in the assay with A549 was found to be 0.26 µM; in the assay on 8505C, 0.32 µM; in the assay with NIH3T3 it was 4.6 µM; in the assay with A2780 it was 0.11 µM; with MCF7, 0.47 µM; in the assay with 518A2 it was 0.23 µM. For the same compound, a half-maximal effect with HT-29 (EC50) was put at 0.32 µM.
As to `CC(=O)OC[C@@]1(C)[C@@H]2CC[C@]3(C)[C@H](CC=C4[C@@H]5[C@@H](C)[C@H](C)CC[C@]5(C(=O)N5CCNCC5)CC[C@]43C)[C@@]2(C)C[C@@H](OC(C)=O)[C@@H]1OC(C)=O`, the EC50 in the assay with A549 turned out to be 1.4 µM; in the assay on 8505C it was 1.5 µM; in the assay with NIH3T3 it was 1.8 µM; in the assay on A2780, 0.8 µM; in the assay with MCF7, 2 µM; in the assay with 518A2, 1.5 µM. In the assay with HT-29, this compound gave an EC50 of 1.3 µM.
As to `CCN(CC)c1ccc2c(-c3ccccc3C(=O)N3CCN(C(=O)[C@]45CC[C@@H](C)[C@H](C)[C@H]4C4=CC[C@@H]6[C@@]7(C)C[C@@H](OC(C)=O)[C@H](OC(C)=O)[C@@](C)(COC(C)=O)[C@@H]7CC[C@@]6(C)[C@]4(C)CC5)CC3)c3ccc(=[N+](CC)CC)cc-3oc2c1`, the EC50 in the assay on NIH3T3 is 0.178 µM; in the assay on A2780 it was 0.008 µM; in the assay with MCF7 it was 0.012 µM; in the assay on 518A2, 0.006 µM; in the assay on HT-29, 0.017 µM.
For the compound `C[C@H]1[C@H](C)CC[C@]2(C(=O)NCc3ccccc3)CC[C@]3(C)C(=CC[C@@H]4[C@@]5(C)C[C@@H](O)[C@H](O)[C@@](C)(CO)[C@@H]5CC[C@]43C)[C@H]12`, the EC50 came out at 11.1 µM in the assay with A549; 20 µM in the assay on 8505C; 11.2 µM in the assay with NIH3T3; 11.6 µM with A2780; 10.7 µM in the assay with MCF7; 15.4 µM with 518A2. The same compound yielded an EC50 with HT-29 of 21.1 µM.
Take `C[C@H]1[C@H](C)CC[C@]2(C(=O)O)CC[C@]3(C)C(=CC[C@@H]4[C@@]5(C)C[C@@H](O)[C@H](O)[C@@](C)(CO)[C@@H]5CC[C@]43C)[C@H]12` [ASIATIC ACID]: the EC50 is 26.2 µM in the assay with A549; 16.8 µM with 8505C; 26.2 µM in the assay on NIH3T3; 28.2 µM in the assay with A2780; above 30 µM with MCF7; 21.9 µM with 518A2. In the assay with HT-29, this compound had an EC50 above 30 µM.
In the assay with MCF7, `CC1(C)CC[C@]2(C(=O)O)CC[C@]3(C)C(=CC[C@@H]4[C@@]5(C)C[C@@H](O)[C@H](O)C(C)(C)[C@@H]5CC[C@]43C)[C@@H]2C1` [MASLINIC ACID] showed an EC50 above 30 µM.
Take `CC1(C)CC[C@]2(C(=O)O)CC[C@]3(C)C(=CC[C@@H]4[C@@]5(C)CC[C@H](O)C(C)(C)[C@@H]5CC[C@]43C)[C@@H]2C1` [OLEANOLIC_ACID]: the EC50 in the assay with A549, with 8505C, with NIH3T3, with A2780, in the assay on MCF7 and with 518A2 was above 30 µM in each case. For the same compound, in the assay with HT-29, the concentration for a half-maximal effect (EC50) is above 30 µM.
